From US9597407B2, “Targeted antimicrobial moieties” (C3 Jian, Inc., priority 2009, dated 2017)
Entries after “also recorded” stand apart in the source; their conditions may differ.

Assays:
microorganisms = assay: Morphology, biofilm and growth disruption by peptides (Table 5); type: cell-based; design: key: A: Peptide aggregates; B: Less hyphal formation; Clumps; Diffuse clumps and small polyps; F: Diffuse growth; H: Thin; I: Growth inhibition; Microcolony formation; Rippled; Small polyps; Thick; W: Halo formation on top, microlonies on bottom
Text: In certain embodiments peptides that induce alterations in phenotype or other biological activities can also be used as antimicrobial effector moieties.

bacteria = assay: Binding of targeting peptides to microorganisms (Table 3); settings: peptide binding in aqueous buffers that varied depending on peptide solubility; preferably 1x PBS

| Substance | Organism, effect (microorganisms; MRSA) | Organism, effect (microorganisms; S. epidermidis) | Target(s) (microorganisms bound by the targeting peptide) (bacteria) | Organism, effect (morphology, biofilm and growth disruption) (microorganisms; S. pneumoniae) | other results |
| --- | --- | --- | --- | --- | --- |
| PF-396 (LIYTILASLGVLTVLQAILGREPKAVKA; Peptide with targeting and/or antimicrobial activity) | MRSA (C) | S. epidermidis (S) | S. epidermidis; also recorded: E. coli; also recorded: P. aeruginosa; also recorded: C. albicans; also recorded: E. faecalis; also recorded: C. jeikeium | – | Organism, effect (microorganisms; E. coli): E. coli (C); Organism, effect (microorganisms; E. faecalis): E. faecalis (C) |
| PF-397 (VEDLMEDLNA; Peptide with targeting and/or antimicrobial activity) | – | S. epidermidis (C) | S. epidermidis and MRSA and S. pneumoniae and E. faecalis and C. jejuni | – | – |
| PF-401 (YWLSRVTTGHSFAFEKPVPLSLTIK; Peptide with targeting and/or antimicrobial activity) | MRSA (C) | S. epidermidis (C) | S. epidermidis and E. coli and P. aeruginosa and MRSA and E. faecalis and C. jejuni | – | Organism, effect (microorganisms; E. coli): E. coli (R); Organism, effect (microorganisms; E. faecalis): E. faecalis (C) |
| PF-403 (LLSTEQLLKYYDGETFDGFQLPSNE; Peptide with targeting and/or antimicrobial activity) | MRSA (M) | S. epidermidis (M) | E. coli; also recorded: P. aeruginosa; also recorded: S. pneumoniae; also recorded: E. faecalis; also recorded: C. jeikeium; also recorded: C. jejuni | – | Organism, effect (microorganisms; E. coli): E. coli (R) |
| PF-404 (VLYFQATVV; Peptide with targeting and/or antimicrobial activity) | MRSA (M) | S. epidermidis (M) | S. epidermidis; also recorded: E. coli; also recorded: P. aeruginosa; also recorded: E. faecalis; also recorded: C. jeikeium; also recorded: C. jejuni | – | – |
| PF-405 (LVRIEVDDLEEWYERNFI; Peptide with targeting and/or antimicrobial activity) | MRSA (M) | – | S. epidermidis; also recorded: E. coli; also recorded: E. faecalis | – | – |
| PF-406 (YLEMNADYLSNMDIFDELWEKYLENNK; Peptide with targeting and/or antimicrobial activity) | MRSA (M) | S. epidermidis (C) | E. coli; also recorded: C. jejuni | – | – |
| PF-408 (YCVPLGNMGNMNNKIW; Peptide with targeting and/or antimicrobial activity) | MRSA (M) | S. epidermidis (M) | S. epidermidis and E. coli and P. aeruginosa and MRSA and E. faecalis and C. jeikeium and C. jejuni | – | – |
| PF-413 (TFAGSIKIGVPDLVHVTFNCKR; Peptide with targeting and/or antimicrobial activity) | MRSA (C) | S. epidermidis (C) | P. aeruginosa; also recorded: C. albicans; also recorded: C. jejuni | – | Organism, effect (microorganisms; E. coli): E. coli (S) |
| PF-414 (LLNKKLE; Peptide with targeting and/or antimicrobial activity) | – | – | E. coli; also recorded: C. albicans; also recorded: C. jeikeium | – | Organism, effect (microorganisms; S. pneumoniae): S. pneumoniae (H) |
| PF-416 (SKAGLYGKIERSDKRE; Peptide with targeting and/or antimicrobial activity) | – | – | S. pneumoniae; also recorded: C. jeikeium | – | Organism, effect (microorganisms; S. pneumoniae): S. pneumoniae (H) |
| PF-417 (DSYFRS; Peptide with targeting and/or antimicrobial activity) | MRSA (M) | S. epidermidis (M) | S. epidermidis; also recorded: C. jeikeium; also recorded: C. jejuni | – | Organism, effect (microorganisms; S. pneumoniae): S. pneumoniae (M) |
| PF-421 (KHCFEITDKTDVV; Peptide with targeting and/or antimicrobial activity) | – | – | C. jeikeium | – | Organism, effect (microorganisms; S. pneumoniae): S. pneumoniae (H) |
| PF-423 (AGKKERLLSFREQFLNKNKKK; Peptide with targeting and/or antimicrobial activity) | – | – | S. epidermidis; also recorded: M. luteus; also recorded: E. coli; also recorded: S. pneumoniae; also recorded: E. faecalis; also recorded: C. jeikeium | S. pneumoniae (H) | – |
| PF-424 (IAAFVTSRAFSDTVSPI; Peptide with targeting and/or antimicrobial activity) | – | – | S. epidermidis and C. albicans and MRSA | S. pneumoniae (H) | – |
| PF-425 (MMELVLKTIIGPIVVGVVLRIVDKWLNKDK; Peptide with targeting and/or antimicrobial activity) | – | – | S. epidermidis and M. luteus and E. coli and P. aeruginosa and C. albicans and MRSA and S. pneumoniae and C. jeikeium | S. pneumoniae (D) | Organism, effect (morphology, biofilm and growth disruption) (microorganisms; C. albicans): C. albicans (A); Organism, effect (morphology, biofilm and growth disruption) (microorganisms; C. jejuni): C. jejuni (D); Organism, effect (morphology, biofilm and growth disruption) (microorganisms; E. coli): E. coli (C); Organism, effect (morphology, biofilm and growth disruption) (microorganisms; E. faecalis): E. faecalis (D); Organism, effect (morphology, biofilm and growth disruption) (microorganisms; MRSA): MRSA (D); Organism, effect (morphology, biofilm and growth disruption) (microorganisms; P. aeruginosa): P. aeruginosa (A); Organism, effect (morphology, biofilm and growth disruption) (microorganisms; S. epidermidis): S. epidermidis (D) |
| PF-426 (MLQKYTQMISVTKCIITKNKKTQENVDAYN; Peptide with targeting and/or antimicrobial activity) | – | – | S. epidermidis and E. coli and P. aeruginosa and C. albicans and MRSA and S. pneumoniae and E. faecalis and C. jeikeium | S. pneumoniae (D) | Organism, effect (morphology, biofilm and growth disruption) (microorganisms; C. albicans): C. albicans (A); Organism, effect (morphology, biofilm and growth disruption) (microorganisms; C. jejuni): C. jejuni (D); Organism, effect (morphology, biofilm and growth disruption) (microorganisms; E. coli): E. coli (C); Organism, effect (morphology, biofilm and growth disruption) (microorganisms; E. faecalis): E. faecalis (D); Organism, effect (morphology, biofilm and growth disruption) (microorganisms; MRSA): MRSA (D); Organism, effect (morphology, biofilm and growth disruption) (microorganisms; S. epidermidis): S. epidermidis (D) |
| PF-427 (YVLEYHGLRATQDVDAFMAL; Peptide with targeting and/or antimicrobial activity) | – | – | M. luteus; also recorded: P. aeruginosa; also recorded: C. albicans; also recorded: C. jejuni | S. pneumoniae (R) | Organism, effect (morphology, biofilm and growth disruption) (microorganisms; E. coli): E. coli (C); Organism, effect (morphology, biofilm and growth disruption) (microorganisms; E. faecalis): E. faecalis (C); Organism, effect (morphology, biofilm and growth disruption) (microorganisms; MRSA): MRSA (C) |
| PF-428 (ENEESIF; Peptide with targeting and/or antimicrobial activity) | – | – | S. epidermidis; also recorded: C. albicans; also recorded: E. faecalis; also recorded: C. jeikeium | S. pneumoniae (H) | – |
